In US12435061B2 (priority 2020, dated 2025):
Converted amounts (≈) assume the structure as drawn. Like-named read-outs stand apart in the source and are kept apart here.

Assays:
hTRPV3 = hTRPV3 (Homo sapiens (Human), UniProt Q8NET8); assay: Whole-cell patch clamp, hTRPV3 Phase 1 / Phase 2 currents; format: cell-based
In short: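 Currents are activated by 20 μM 2-APB or by perfusate at 28 °C or warmer, in Ringer's solution, and quantified at ±80 mV.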

human hERG channels = human hERG channels (Homo sapiens (Human), UniProt Q12809); assay: hERG assay (patch clamp, CHO cells); format: cell-based
Sequence of human hERG channels (Q12809 whole entry): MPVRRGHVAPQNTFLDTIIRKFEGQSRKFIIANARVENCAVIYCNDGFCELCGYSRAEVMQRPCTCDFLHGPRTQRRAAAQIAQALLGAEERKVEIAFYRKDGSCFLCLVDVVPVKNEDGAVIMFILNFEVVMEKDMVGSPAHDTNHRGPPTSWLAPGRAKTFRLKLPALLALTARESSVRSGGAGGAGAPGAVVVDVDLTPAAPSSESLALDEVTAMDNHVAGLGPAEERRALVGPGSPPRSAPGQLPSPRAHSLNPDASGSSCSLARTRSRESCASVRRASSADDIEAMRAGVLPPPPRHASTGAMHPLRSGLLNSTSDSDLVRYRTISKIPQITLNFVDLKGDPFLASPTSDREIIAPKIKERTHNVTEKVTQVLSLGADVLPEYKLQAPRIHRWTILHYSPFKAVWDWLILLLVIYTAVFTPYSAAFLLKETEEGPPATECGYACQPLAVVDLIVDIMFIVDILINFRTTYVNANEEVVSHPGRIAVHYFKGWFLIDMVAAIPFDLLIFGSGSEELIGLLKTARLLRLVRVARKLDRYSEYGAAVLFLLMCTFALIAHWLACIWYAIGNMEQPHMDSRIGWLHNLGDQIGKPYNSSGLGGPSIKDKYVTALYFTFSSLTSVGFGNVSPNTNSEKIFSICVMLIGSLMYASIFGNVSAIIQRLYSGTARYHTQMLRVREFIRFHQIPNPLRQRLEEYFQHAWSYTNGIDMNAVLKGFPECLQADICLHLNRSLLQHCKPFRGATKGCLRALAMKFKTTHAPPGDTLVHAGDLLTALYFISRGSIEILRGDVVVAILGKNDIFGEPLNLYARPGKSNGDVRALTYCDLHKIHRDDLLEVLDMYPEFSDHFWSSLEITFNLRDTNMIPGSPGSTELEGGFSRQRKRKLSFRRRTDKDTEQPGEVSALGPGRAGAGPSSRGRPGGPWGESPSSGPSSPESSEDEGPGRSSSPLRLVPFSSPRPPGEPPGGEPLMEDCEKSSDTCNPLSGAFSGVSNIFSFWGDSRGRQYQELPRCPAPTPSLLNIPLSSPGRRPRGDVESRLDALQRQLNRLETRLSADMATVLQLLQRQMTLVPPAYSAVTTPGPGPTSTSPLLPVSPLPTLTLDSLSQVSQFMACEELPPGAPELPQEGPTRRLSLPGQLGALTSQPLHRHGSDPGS
Procedure: hERG assay: Briefly, cells from a stable CHO cell line expressing human hERG channels were plated onto glass coverslips and used in patch clamp assays on the same day. After seal formation and break-in to whole-cell configuration, voltage steps were applied as follows: from the holding potential of −90 mV, a 2 second long step to +40 mV was applied, followed by a 1.5 second step to −50 mV. These steps were applied once every 5 seconds. The hERG current was measured at the peak of the outward tail current at −50 mV. The pipette solution was potassium aspartate based and the external solution was normal Ringer's.
All currents were recorded in whole-cell configuration using an Axopatch 200B controlled by pClamp 10 software (Molecular Devices). In each cell, when the current stabilized, the compound was perfused locally onto the cell. Two to three concentrations of the test compound were applied to each cell. At the end of compound testing, 10 μM verapamil was applied to completely block hERG currents and assess leak current.
Data were analyzed by computing the degree of current block after compound addition compared with the unblocked current amplitude. The unblocked current was predicted from the interpolation between the current amplitude prior to compound addition and after compound washout. The resulting percent block at each concentration was used to make a concentration-response plot and fitted to the Hill equation: percent block=minimum block+(maximum block-minimum block)/(1+10^(Hill slope*(log IC50−concentration))).

[1] = Aqueous solubility assay in Normal Ringer Solution; conditions: Normal Ringer Solution, saline or isotonic, kinetic from dmso stock
Procedure: Following vortex and incubation for a sufficient time (e.g. 40 minutes at room temperature), solutions were filtered, quenched with acetonitrile, and analyzed by Liquid Chromotography. Solubility Limits were determined by comparison to a standard curve.

[2] = Metabolic Stability assay, rat liver microsomes; format: in vitro ADME; conditions: read-out: LM T1/2 (min) rat
In short: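 Reactions in human or rat liver microsomes at 37 °C were started with an NADPH-regenerating system, using 1 μM compound initially. Samples were taken at 0, 7, 15, 30 and 60 min, quenched in ice-cold acetonitrile/MeOH/H2O, and quantified by HPLC/MS/MS.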

[3] = Phase 1 current, human TRPV3, read-out: hTRPV3 (nM) Phase 1
[4] = Phase 1 current, inward, whole-cell patch clamp, read-out: hTRPV3 Patch P1 Inwd

Sequence of hTRPV3 (Q8NET8 whole entry): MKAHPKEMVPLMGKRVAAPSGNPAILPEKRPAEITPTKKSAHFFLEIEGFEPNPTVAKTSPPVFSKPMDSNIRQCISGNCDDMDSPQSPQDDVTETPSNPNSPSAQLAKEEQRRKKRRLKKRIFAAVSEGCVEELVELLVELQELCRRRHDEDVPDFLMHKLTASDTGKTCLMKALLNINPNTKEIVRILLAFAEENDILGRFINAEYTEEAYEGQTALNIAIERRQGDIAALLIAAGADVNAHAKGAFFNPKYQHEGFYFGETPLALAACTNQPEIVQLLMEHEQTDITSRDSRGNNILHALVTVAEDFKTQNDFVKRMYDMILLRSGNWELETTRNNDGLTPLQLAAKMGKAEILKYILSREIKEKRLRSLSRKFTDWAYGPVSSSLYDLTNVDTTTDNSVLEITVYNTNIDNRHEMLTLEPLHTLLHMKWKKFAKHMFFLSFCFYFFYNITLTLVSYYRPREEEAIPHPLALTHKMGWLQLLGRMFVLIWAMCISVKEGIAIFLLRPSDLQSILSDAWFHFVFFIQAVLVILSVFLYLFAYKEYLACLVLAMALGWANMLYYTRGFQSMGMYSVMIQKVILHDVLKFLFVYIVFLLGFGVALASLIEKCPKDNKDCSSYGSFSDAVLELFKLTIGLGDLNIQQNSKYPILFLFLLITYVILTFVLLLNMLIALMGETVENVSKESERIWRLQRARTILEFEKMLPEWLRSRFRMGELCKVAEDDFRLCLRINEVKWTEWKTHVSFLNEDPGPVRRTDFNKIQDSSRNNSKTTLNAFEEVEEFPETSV

Structure (SMILES) | IC50 (hTRPV3; [3]) [nM] | IC50 (hTRPV3; [4]) [nM] | IC50 (human hERG channels; (PL), read-out: hERG (nM) (PL)) | solubility at 40 min [1] [µM] | half-life at 1 μM [2] [min] | IC50 (hTRPV3; Phase 2 current, human TRPV3, read-out: hTRPV3 (nM) Phase 2) [nM] | IC50 (hTRPV3; Phase 2 current, inward, whole-cell patch clamp, read-out: hTRPV3 Patch P2 Inwd) [nM] | IC50 (human hERG channels) [nM] | IC50 (human hERG channels; (M), read-out: hERG) [nM]
CC(C)c1ccccc1Oc1ccc(C2CCN(C(=O)c3ncccc3Cl)C2)c(CO)c1 (centres unmarked) [Compound 2-12, (3-chloropyridin-2-yl)(3-(2-(hydroxymethyl)-4-(2-isopropylphenoxy)phenyl)pyrrolidin-1-yl)methanone] | 101 | 10 to 100 | 12600 | > 8 | 7.55 |  |  |  | 
CC(C)c1ccccc1Oc1ccc(C2CCN(C(=O)c3ccc(F)cn3)C2)c(CO)c1 (centres unmarked) [Compound 2-16, (5-fluoropyridin-2-yl)(3-(2-(hydroxymethyl)-4-(2-isopropylphenoxy)phenyl)pyrrolidin-1-yl)methanone] | 29.7 | 10 to 100 | 9650 | ~4.7 (≈ 2.04 µg/mL) | 5.3 | 25.7 | 10 to 100 |  | 
CC(C)c1ccccc1Oc1ccc(C2CCN(C(=O)c3cccc(Cl)n3)C2)c(CO)c1 (centres unmarked) [Compound 2-20, (6-chloropyridin-2-yl)(3-(2-(hydroxymethyl)-4-(2-isopropylphenoxy)phenyl)pyrrolidin-1-yl)methanone] | 62 | 10 to 100 |  | ~1.6 (≈ 0.722 µg/mL) | 8.33 |  |  | ~5330 | 3910
CCc1cncnc1Oc1ccc(C2CCN(C(=O)c3ncccc3Cl)C2)c(CO)c1 (centres unmarked) [Compound 2-22, (3-chloropyridin-2-yl)(3-(4-(5-ethylpyrimidin-4-yloxy)-2-(hydroxymethyl)phenyl)pyrrolidin-1-yl)methanone] | > 3200 | > 1000 | > 32000 | > 20.3 | 31.8 |  |  |  | 
CC(C)c1ccccc1Oc1ccc(C2CCN(C(=O)c3ncccc3Cl)C2)c(C(N)=O)c1 (centres unmarked) [Compound 2-26, 2-(1-(3-chloropicolinoyl)pyrrolidin-3-yl)-5-(2-isopropylphenoxy)benzamide] | 217 | 100 to 1000 | 10400 | > 19.2 | 19.7 |  |  |  | 
CCc1ccccc1-c1ccc(C2CCN(C(=O)c3ccc(F)cn3)C2)c(CO)c1 (centres unmarked) [Compound 2-28, (3-(2′-ethyl-3-(hydroxymethyl)biphenyl-4-yl)pyrrolidin-1-yl)(5-fluoropyridin-2-yl)methanone] | 19.6 | 10 to 100 | 13700 | > 15 | 18.4 |  |  |  | 
CC(C)c1ccccc1-c1ccc(C2CCN(C(=O)c3ccccn3)C2)c(CO)c1 (centres unmarked) [Compound 2-42] | 22.7 | 10 to 100 | 18300 | > 19.7 | 11.7 |  |  |  | 
CCc1ccccc1-c1ccc(C2CCN(C(=O)c3ccc(C(F)(F)F)cn3)C2)c(CO)c1 (centres unmarked) [Compound 2-47, (3-(2′-ethyl-3-(hydroxymethyl)biphenyl-4-yl)pyrrolidin-1-yl)(5-(trifluoromethyl)pyridin-2-yl)methanone] | 18.4 | 10 to 100 | 17200 | ~5.6 (≈ 2.55 µg/mL) | 28.1 |  |  |  | 
CCc1ccccc1-c1ccc(C2CCN(C(=O)c3cc(Cl)ccn3)C2)c(CO)c1 (centres unmarked) [Compound 2-48, (4-chloropyridin-2-yl)(3-(2′-ethyl-3-(hydroxymethyl)biphenyl-4-yl)pyrrolidin-1-yl) methanone] | 69.3 | 10 to 100 | 13400 | > 8 | 7.54 |  |  |  | 
CCc1c(C)cccc1-c1ccc(C2CCN(C(=O)c3ccc(F)cn3)C2)c(CO)c1 (centres unmarked) [Compound 2-64, (3-(2′-ethyl-3-(hydroxymethyl)-3′-methylbiphenyl-4-yl)pyrrolidin-1-yl)(5-fluoropyridin-2-yl)methanone] | 18 | 10 to 100 | 10100 | > 15.7 | 6.38 |  |  |  | 
CCOc1ccccc1-c1ccc(C2CCN(C(=O)c3ccc(Cl)cn3)C2)c(CO)c1 (centres unmarked) [Compound 2-69, (5-chloropyridin-2-yl)(3-(2′-ethoxy-3-(hydroxymethyl)biphenyl-4-yl)pyrrolidin-1-yl)methanone] | 25.3 | 10 to 100 | 12300 | > 16 | 12.6 |  |  |  | 
O=C(c1ccc(F)cn1)N1CCC(c2ccc(-c3ccccc3)nc2CO)C1 (centres unmarked) [Compound 2-80] | 163 | 100 to 1000 | 5520 |  |  |  |  |  | 
CCc1ccccc1Oc1ccc(C2CCN(C(=O)c3ncccc3Cl)C2)c(CO)c1 (centres unmarked) [Compound 2-83, (3-chloropyridin-2-yl)(3-(4-(2-ethylphenoxy)-2-(hydroxymethyl)phenyl)pyrrolidin-1-yl)methanone] | 95.1 |  | 16000 | > 11 | 9.46 |  |  |  | 
CC(C)c1ccccc1Oc1ccc(C2CCN(Cc3ccccn3)C2)c(CO)c1 (centres unmarked) [Compound 2-87, (5-(2-isopropylphenoxy)-2-(1-(pyridin-2-ylmethyl)pyrrolidin-3-yl)phenyl)methanol] | 699 | 100 to 1000 | 260 |  | 2.46 |  |  |  | 
CC(C)c1ccccc1Oc1ccc(C2CC(=O)N(Cc3ccccn3)C2)c(CO)c1 (centres unmarked) [Compound 2-93, 4-(2-(hydroxymethyl)-4-(2-isopropylphenoxy)phenyl)-1-(pyridin-2-ylmethyl)pyrrolidin-2-one] | 205 | 100 to 1000 |  | ~4.2 (≈ 1.75 µg/mL) | 5.05 |  |  | ~5970 | ~10800
CC(C)c1ccccc1-c1ccc(C2CCN(Cc3ccc(F)cn3)C2)c(CO)c1 (centres unmarked) [Compound 2-95] | 582 | 100 to 1000 | < 1000 |  |  |  |  |  | 
O=C(c1cnccn1)N1CCC(c2ccc(-c3ccccc3C3CC3)cc2CO)C1 (centres unmarked) [Compound 2-105, (3-(2′-cyclopropyl-3-(hydroxymethyl)biphenyl-4-yl)pyrrolidin-1-yl)(pyrazin-2-yl)methanone] | 61.2 | 10 to 100 | 11700 | > 21 | 12.9 |  |  |  | 
